Laboratory results from the kinase profiling compilation of Christmann-Franck et al. (2016).

Experiments:
Assay in all cases: radiometric filter-binding kinase assay, Kinase HotSpot
Conditions in all cases: compound 0.5 µM; ATP 10 µM
AURKB (human) = AURKB (human) (UniProt Q96GD4)
AXL (human) = AXL (human) (UniProt P30530)
CAMK1G (human) = CAMK1G (human) (UniProt Q96NX5)
CAMK2G (human) = CAMK2G (human) (UniProt Q13555)
CHEK1 (human) = CHEK1 (human) (UniProt O14757)
CHEK2 (human) = CHEK2 (human) (UniProt O96017)
CLK3 (human) = CLK3 (human) (UniProt P49761)
CSNK1G2 (human) = CSNK1G2 (human) (UniProt P78368)
DAPK2 (human) = DAPK2 (human) (UniProt Q9UIK4)
EPHB4 (human) = EPHB4 (human) (UniProt P54760)
FLT3 (human) = FLT3 (human) (UniProt P36888)
FRK (human) = FRK (human) (UniProt P42685)
GSK3A (human) = GSK3A (human) (UniProt P49840)
HIPK3 (human) = HIPK3 (human) (UniProt Q9H422)
IGF1R (human) = IGF1R (human) (UniProt P08069)
IKBKB (human) = IKBKB (human) (UniProt O14920)
[1] = molecular target: JAK1 JH1 catalytic (human) (UniProt P23458)
MAP3K2 (human) = MAP3K2 (human) (UniProt Q9Y2U5)
MAP3K5 (human) = MAP3K5 (human) (UniProt Q99683)
MAP3K7 TAB1 (human) = MAP3K7 TAB1 (human) (UniProt O43318+Q15750)
MAP4K2 (human) = MAP4K2 (human) (UniProt Q12851)
MAPK10 (human) = MAPK10 (human) (UniProt P53779)
MAPKAPK3 (human) = MAPKAPK3 (human) (UniProt Q16644)
MELK (human) = MELK (human) (UniProt Q14680)
NEK11 (human) = NEK11 (human) (UniProt Q8NG66)
NTRK2 (human) = NTRK2 (human) (UniProt Q16620)
NUAK1 (human) = NUAK1 (human) (UniProt O60285)
PAK3 (human) = PAK3 (human) (UniProt O75914)
PNCK (human) = PNCK (human) (UniProt Q6P2M8)
PRKCZ (human) = PRKCZ (human) (UniProt Q05513)
RIPK2 (human) = RIPK2 (human) (UniProt O43353)
SGK2 (human) = SGK2 (human) (UniProt Q9HBY8)
SIK2 (human) = SIK2 (human) (UniProt Q9H0K1)
SLK (human) = SLK (human) (UniProt Q9H2G2)
SRMS (human) = SRMS (human) (UniProt Q9H3Y6)
STK16 (human) = STK16 (human) (UniProt O75716)
SYK (human) = SYK (human) (UniProt P43405)
TAOK1 (human) = TAOK1 (human) (UniProt Q7L7X3)
TBK1 (human) = TBK1 (human) (UniProt Q9UHD2)
TGFBR2 (human) = TGFBR2 (human) (UniProt P37173)
TSSK1B (human) = TSSK1B (human) (UniProt Q9BXA7)
VRK1 (human) = VRK1 (human) (UniProt Q99986)

Sequence of FRK (human) (P42685 whole entry, looked up): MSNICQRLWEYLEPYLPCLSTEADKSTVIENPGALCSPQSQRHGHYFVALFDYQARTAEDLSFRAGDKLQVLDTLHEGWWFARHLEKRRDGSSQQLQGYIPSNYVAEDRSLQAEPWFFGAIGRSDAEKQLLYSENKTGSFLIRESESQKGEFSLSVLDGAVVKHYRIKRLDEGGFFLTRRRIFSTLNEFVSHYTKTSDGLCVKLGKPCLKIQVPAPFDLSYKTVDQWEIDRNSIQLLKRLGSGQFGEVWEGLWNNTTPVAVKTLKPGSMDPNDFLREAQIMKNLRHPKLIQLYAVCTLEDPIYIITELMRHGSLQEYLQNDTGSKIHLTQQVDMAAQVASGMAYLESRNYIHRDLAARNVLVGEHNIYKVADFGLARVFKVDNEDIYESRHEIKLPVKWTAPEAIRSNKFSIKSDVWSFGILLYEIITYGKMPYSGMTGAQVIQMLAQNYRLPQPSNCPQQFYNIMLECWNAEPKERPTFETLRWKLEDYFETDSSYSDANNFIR
Sequence of MELK (human) (Q14680 whole entry, looked up): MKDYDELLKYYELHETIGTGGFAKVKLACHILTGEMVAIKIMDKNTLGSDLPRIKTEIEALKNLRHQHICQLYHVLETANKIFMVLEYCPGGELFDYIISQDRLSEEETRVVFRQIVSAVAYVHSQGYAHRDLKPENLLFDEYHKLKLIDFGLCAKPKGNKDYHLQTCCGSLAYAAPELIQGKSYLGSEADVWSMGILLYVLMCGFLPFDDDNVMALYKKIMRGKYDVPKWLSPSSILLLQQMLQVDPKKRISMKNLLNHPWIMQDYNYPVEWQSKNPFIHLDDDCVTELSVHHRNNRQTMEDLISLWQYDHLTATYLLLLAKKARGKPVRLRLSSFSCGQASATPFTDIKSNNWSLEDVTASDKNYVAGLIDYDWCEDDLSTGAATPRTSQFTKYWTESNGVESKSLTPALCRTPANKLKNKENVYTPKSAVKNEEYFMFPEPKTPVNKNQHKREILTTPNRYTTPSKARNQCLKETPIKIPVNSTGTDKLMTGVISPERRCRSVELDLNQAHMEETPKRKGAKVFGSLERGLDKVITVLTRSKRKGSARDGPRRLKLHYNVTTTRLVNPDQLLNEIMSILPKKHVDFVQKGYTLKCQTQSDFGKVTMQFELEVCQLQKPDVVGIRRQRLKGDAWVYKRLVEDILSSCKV
Sequence of MAP4K2 (human) (Q12851 whole entry, looked up): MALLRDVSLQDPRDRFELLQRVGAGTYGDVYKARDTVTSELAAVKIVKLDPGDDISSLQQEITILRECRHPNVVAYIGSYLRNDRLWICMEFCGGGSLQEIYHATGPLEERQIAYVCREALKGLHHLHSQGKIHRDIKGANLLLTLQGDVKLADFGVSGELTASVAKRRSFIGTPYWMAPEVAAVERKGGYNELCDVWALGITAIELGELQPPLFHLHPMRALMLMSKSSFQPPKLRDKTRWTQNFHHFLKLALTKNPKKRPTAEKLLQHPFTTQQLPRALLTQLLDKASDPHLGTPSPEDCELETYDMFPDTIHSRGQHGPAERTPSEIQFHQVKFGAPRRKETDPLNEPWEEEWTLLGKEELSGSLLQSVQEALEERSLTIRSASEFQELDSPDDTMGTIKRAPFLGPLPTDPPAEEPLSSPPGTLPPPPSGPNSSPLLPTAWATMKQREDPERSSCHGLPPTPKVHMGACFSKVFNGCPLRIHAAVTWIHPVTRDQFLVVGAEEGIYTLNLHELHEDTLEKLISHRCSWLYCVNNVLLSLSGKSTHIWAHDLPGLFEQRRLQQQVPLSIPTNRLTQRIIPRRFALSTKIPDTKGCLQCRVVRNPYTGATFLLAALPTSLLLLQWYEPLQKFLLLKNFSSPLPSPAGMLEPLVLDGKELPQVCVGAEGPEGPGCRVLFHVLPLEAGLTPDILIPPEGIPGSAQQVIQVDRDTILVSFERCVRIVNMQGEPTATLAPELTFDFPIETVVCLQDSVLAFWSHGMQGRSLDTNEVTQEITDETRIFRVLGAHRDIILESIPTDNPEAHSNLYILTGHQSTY
Sequence of TBK1 (human) (Q9UHD2 whole entry, looked up): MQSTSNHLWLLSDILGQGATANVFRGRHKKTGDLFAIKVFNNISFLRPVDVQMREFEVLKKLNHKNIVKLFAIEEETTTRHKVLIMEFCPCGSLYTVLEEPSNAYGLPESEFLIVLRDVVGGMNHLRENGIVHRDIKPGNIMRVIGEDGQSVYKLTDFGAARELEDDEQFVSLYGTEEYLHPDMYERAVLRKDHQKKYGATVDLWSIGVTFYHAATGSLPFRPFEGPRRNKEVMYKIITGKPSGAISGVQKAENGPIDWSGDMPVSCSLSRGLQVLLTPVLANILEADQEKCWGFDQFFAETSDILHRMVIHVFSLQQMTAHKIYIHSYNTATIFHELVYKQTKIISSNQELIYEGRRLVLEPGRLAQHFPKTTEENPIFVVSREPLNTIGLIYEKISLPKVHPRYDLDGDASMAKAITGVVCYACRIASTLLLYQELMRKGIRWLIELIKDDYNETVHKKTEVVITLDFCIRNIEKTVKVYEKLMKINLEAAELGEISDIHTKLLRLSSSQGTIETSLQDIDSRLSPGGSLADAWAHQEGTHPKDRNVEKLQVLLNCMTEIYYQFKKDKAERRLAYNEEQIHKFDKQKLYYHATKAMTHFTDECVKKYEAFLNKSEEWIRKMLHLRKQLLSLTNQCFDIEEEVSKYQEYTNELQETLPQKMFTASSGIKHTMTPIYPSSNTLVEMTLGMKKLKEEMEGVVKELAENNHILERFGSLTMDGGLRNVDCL
Sequence of TSSK1B (human) (Q9BXA7 whole entry, looked up): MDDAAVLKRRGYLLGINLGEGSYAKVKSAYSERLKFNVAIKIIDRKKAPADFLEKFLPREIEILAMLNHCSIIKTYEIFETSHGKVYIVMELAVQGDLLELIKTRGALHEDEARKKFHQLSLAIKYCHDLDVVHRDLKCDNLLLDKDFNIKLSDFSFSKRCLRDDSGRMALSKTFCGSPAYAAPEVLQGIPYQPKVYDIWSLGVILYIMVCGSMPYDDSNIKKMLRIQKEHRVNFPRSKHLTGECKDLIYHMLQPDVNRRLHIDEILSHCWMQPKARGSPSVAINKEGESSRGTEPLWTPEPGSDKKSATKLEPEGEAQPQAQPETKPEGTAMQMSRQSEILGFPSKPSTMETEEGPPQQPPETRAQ
Sequence of HIPK3 (human) (Q9H422 whole entry, looked up): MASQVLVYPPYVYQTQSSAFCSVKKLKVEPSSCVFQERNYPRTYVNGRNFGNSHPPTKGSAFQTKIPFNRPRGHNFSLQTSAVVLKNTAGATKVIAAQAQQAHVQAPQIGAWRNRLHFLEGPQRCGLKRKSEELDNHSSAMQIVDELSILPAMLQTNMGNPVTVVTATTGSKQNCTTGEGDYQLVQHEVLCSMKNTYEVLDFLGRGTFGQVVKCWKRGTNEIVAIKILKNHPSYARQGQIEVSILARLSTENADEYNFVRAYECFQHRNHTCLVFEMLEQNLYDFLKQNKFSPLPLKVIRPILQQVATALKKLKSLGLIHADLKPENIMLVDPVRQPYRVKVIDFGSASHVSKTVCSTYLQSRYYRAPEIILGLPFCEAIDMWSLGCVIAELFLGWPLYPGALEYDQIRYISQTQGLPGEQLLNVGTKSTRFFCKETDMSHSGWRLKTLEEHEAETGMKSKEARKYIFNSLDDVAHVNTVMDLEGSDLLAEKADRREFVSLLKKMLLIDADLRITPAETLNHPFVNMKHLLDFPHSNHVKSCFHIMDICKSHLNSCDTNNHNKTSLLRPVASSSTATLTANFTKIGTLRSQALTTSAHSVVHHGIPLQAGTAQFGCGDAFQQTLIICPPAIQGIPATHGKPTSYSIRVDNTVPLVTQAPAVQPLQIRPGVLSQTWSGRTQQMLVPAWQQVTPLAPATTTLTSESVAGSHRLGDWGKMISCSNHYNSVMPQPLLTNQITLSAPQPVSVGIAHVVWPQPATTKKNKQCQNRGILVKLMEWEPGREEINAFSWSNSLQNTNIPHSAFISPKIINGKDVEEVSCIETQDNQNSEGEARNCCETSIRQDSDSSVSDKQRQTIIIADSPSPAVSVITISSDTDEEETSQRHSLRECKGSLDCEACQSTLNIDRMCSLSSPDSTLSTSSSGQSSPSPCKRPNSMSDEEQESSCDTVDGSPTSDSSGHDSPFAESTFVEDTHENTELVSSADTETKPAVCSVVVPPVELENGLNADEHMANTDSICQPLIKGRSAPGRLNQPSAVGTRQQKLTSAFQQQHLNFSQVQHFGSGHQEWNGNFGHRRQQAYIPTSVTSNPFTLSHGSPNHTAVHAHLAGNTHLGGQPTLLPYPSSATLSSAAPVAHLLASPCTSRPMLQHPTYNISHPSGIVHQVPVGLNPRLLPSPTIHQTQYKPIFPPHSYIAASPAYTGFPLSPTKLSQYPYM
Sequence of DAPK2 (human) (Q9UIK4 whole entry, looked up): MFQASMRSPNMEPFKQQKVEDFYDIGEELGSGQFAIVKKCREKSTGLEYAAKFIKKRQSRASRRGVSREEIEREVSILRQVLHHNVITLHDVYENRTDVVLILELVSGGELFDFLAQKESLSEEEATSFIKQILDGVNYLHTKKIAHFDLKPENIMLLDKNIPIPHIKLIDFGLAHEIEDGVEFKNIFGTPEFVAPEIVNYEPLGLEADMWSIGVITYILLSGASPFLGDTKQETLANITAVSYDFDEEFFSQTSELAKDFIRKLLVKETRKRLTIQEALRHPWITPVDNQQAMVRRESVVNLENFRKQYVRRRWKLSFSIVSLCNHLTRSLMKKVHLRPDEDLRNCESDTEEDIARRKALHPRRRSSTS
Sequence of STK16 (human) (O75716 whole entry, looked up): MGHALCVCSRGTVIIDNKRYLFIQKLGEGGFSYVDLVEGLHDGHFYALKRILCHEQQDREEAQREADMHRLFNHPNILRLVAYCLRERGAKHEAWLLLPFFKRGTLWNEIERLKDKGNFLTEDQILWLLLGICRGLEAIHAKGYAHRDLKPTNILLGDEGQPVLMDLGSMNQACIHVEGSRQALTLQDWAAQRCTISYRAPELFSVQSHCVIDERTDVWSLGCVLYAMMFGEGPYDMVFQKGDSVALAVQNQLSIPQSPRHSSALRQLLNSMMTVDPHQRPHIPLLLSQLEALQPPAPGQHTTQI

Compound `COc1ccc(OC)c2c(=S)c3ccccc3[nH]c12` has a residual activity (AURKB (human)) of 89.6%, a residual activity (AXL (human)) of 103% and a residual activity (CAMK1G (human)) of 99.5%. It also gave a residual activity (CAMK2G (human)) of 95.8%, a residual activity (CHEK1 (human)) of 92.7% and a residual activity (CHEK2 (human)) of 117%. It also gave a residual activity (CLK3 (human)) of 96.3%, a residual activity (CSNK1G2 (human)) of 103% and a residual activity (DAPK2 (human)) of 94%. The residual activity (EPHB4 (human)) was 91.1%, the residual activity (FLT3 (human)) was 71% and the residual activity (FRK (human)) was 88.8%. For the same compound, the residual activity (GSK3A (human)) was 104%, the residual activity (HIPK3 (human)) was 101% and the residual activity (IGF1R (human)) was 97.2%. The residual activity (IKBKB (human)) was 103%, the residual activity [1] was 102% and the residual activity (MAP3K2 (human)) was 101%. The residual activity (MAP3K5 (human)) was 115%, the residual activity (MAP3K7 TAB1 (human)) was 98.8% and the residual activity (MAP4K2 (human)) was 96.5%. It also gave a residual activity (MAPK10 (human)) of 108%, a residual activity (MAPKAPK3 (human)) of 87.7% and a residual activity (MELK (human)) of 96.6%. It also gave a residual activity (NEK11 (human)) of 130%, a residual activity (NTRK2 (human)) of 94% and a residual activity (NUAK1 (human)) of 99.3%. For the same compound, the residual activity (PAK3 (human)) was 98%, the residual activity (PNCK (human)) was 97.3% and the residual activity (PRKCZ (human)) was 99.4%. The residual activity (RIPK2 (human)) was 108%, the residual activity (SGK2 (human)) was 96.5% and the residual activity (SIK2 (human)) was 114%. It also gave a residual activity (SLK (human)) of 80.2%, a residual activity (SRMS (human)) of 83.5% and a residual activity (STK16 (human)) of 90%. For the same compound, the residual activity (SYK (human)) was 100%, the residual activity (TAOK1 (human)) was 95.7% and the residual activity (TBK1 (human)) was 97.5%. For the same compound, the residual activity (TGFBR2 (human)) was 109%, the residual activity (TSSK1B (human)) was 114% and the residual activity (VRK1 (human)) was 100%.
Work on `O=C(O)/C=C/c1cc(Br)c(Br)c(Br)c1Br` yielded a residual activity (AURKB (human)) of 88.5%, a residual activity (AXL (human)) of 90.9% and a residual activity (CAMK1G (human)) of 94.1%. It also gave a residual activity (CAMK2G (human)) of 104%, a residual activity (CHEK1 (human)) of 135% and a residual activity (CHEK2 (human)) of 77.5%. The residual activity (CLK3 (human)) was 96.1%, the residual activity (CSNK1G2 (human)) was 90.1% and the residual activity (DAPK2 (human)) was 104%. The residual activity (EPHB4 (human)) was 81.2%, the residual activity (FLT3 (human)) was 79% and the residual activity (FRK (human)) was 102%. The residual activity (GSK3A (human)) was 91.5%, the residual activity (HIPK3 (human)) was 96.7% and the residual activity (IGF1R (human)) was 96%. The residual activity (IKBKB (human)) was 95.7%, the residual activity [1] was 98.8% and the residual activity (MAP3K2 (human)) was 102%. The residual activity (MAP3K5 (human)) was 94%, the residual activity (MAP3K7 TAB1 (human)) was 98.4% and the residual activity (MAP4K2 (human)) was 89.3%. It also gave a residual activity (MAPK10 (human)) of 96.3%, a residual activity (MAPKAPK3 (human)) of 86.3% and a residual activity (MELK (human)) of 91%. For the same compound, the residual activity (NEK11 (human)) was 101%, the residual activity (NTRK2 (human)) was 98.2% and the residual activity (NUAK1 (human)) was 87.6%. The residual activity (PAK3 (human)) was 100%, the residual activity (PNCK (human)) was 95.1% and the residual activity (PRKCZ (human)) was 89.2%. It also gave a residual activity (RIPK2 (human)) of 88.4%, a residual activity (SGK2 (human)) of 59.7% and a residual activity (SIK2 (human)) of 107%. For the same compound, the residual activity (SLK (human)) was 96%, the residual activity (SRMS (human)) was 89.3% and the residual activity (STK16 (human)) was 90.4%. The residual activity (SYK (human)) was 102%, the residual activity (TAOK1 (human)) was 56.3% and the residual activity (TBK1 (human)) was 91.4%. It also gave a residual activity (TGFBR2 (human)) of 85.7%, a residual activity (TSSK1B (human)) of 79.2% and a residual activity (VRK1 (human)) of 89.8%.
With `CC(C)[C@H](CO)Nc1nc(Nc2cc(N)cc(Cl)c2)c2ncn(C(C)C)c2n1` the residual activity (AURKB (human)) was 87.8%, the residual activity (AXL (human)) was 93.1% and the residual activity (CAMK1G (human)) was 105%. The residual activity (CAMK2G (human)) was 104%, the residual activity (CHEK1 (human)) was 96.2% and the residual activity (CHEK2 (human)) was 96.3%. It also gave a residual activity (CLK3 (human)) of 85.5%, a residual activity (CSNK1G2 (human)) of 35.2% and a residual activity (DAPK2 (human)) of 101%. The residual activity (EPHB4 (human)) was 58.4%, the residual activity (FLT3 (human)) was 8.35% and the residual activity (FRK (human)) was 70.3%. The residual activity (GSK3A (human)) was 101%, the residual activity (HIPK3 (human)) was 99.4% and the residual activity (IGF1R (human)) was 73%. The residual activity (IKBKB (human)) was 104%, the residual activity [1] was 101% and the residual activity (MAP3K2 (human)) was 83.1%. It also gave a residual activity (MAP3K5 (human)) of 95.6%, a residual activity (MAP3K7 TAB1 (human)) of 51.3% and a residual activity (MAP4K2 (human)) of 90.7%. For the same compound, the residual activity (MAPK10 (human)) was 94.6%, the residual activity (MAPKAPK3 (human)) was 98.4% and the residual activity (MELK (human)) was 51.5%. The residual activity (NEK11 (human)) was 84.2%, the residual activity (NTRK2 (human)) was 3.04% and the residual activity (NUAK1 (human)) was 61.5%. It also gave a residual activity (PAK3 (human)) of 101%, a residual activity (PNCK (human)) of 132% and a residual activity (PRKCZ (human)) of 101%. It also gave a residual activity (RIPK2 (human)) of 87.7%, a residual activity (SGK2 (human)) of 121% and a residual activity (SIK2 (human)) of 104%. For the same compound, the residual activity (SLK (human)) was 39.8%, the residual activity (SRMS (human)) was 96.8% and the residual activity (STK16 (human)) was 74%. The residual activity (SYK (human)) was 81.1%, the residual activity (TAOK1 (human)) was 79.9% and the residual activity (TBK1 (human)) was 86.6%. It also gave a residual activity (TGFBR2 (human)) of 93.5%, a residual activity (TSSK1B (human)) of 91.3% and a residual activity (VRK1 (human)) of 85.8%.
